Test results: patent publication US20250230165A1, “HETEROCYCLIC COMPOUNDS FOR USE IN THE TREATMENT OF CANCER” (ARTIOS PHARMA LIMITED, priority 2021, published 2025)

What follows are compounds tested against T1, Human Polθ polymerase domain (aa1820-2590) (Homo sapiens, UniProt O75417) (assay: Polθ Polymerase Domain Kinact/KI Assay (PicoGreen)). Conditions: 0.8 nM Polθ, 100 nM DNA substrate, kobs vs [I] fit for 2-step covalent inhibitor.
T1 construct: Human Polθ polymerase domain (aa1820-2590) was expressed in E. coli; made in house; host or cells: E. coli
T1 sequence (O75417 1820-2590): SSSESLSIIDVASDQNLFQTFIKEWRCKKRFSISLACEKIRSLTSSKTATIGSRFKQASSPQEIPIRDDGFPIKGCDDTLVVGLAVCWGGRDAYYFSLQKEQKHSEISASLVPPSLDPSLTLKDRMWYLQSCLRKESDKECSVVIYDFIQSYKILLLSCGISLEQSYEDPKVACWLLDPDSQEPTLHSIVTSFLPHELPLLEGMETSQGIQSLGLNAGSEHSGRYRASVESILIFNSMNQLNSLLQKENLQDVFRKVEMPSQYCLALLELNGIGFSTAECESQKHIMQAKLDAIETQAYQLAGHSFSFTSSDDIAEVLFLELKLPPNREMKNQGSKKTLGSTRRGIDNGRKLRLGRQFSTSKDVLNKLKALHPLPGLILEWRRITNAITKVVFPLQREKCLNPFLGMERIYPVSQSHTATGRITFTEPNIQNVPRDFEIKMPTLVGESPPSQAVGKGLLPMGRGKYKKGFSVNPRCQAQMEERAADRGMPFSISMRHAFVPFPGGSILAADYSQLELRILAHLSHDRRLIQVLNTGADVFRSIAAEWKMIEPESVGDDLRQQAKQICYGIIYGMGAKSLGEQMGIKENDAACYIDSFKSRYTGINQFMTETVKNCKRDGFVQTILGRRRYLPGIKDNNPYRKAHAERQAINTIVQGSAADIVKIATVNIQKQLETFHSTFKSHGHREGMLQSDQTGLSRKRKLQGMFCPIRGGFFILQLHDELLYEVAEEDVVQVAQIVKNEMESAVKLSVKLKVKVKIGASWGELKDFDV
Assay type: biochemical
In short: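 PicoGreen fluorescence read-out of primer extension; progress curves per inhibitor concentration fitted for kobs, then kobs vs [I] fitted to a two-step covalent model to give Kinact and KI. Conditions: 0.8 nM enzyme, 100 nM DNA substrate, […].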

| SMILES | Kinact/Kl |
| --- | --- |
| Cc1cc(C(F)(F)F)cc(N2C(=O)C[C@@H]3CN(Cc4ccc5c(c4)N(C(=O)/C=C/CN(C)C)CCO5)c4c(Cl)cccc4N(C)C(=O)[C@H]32)n1 [Example 251, (3aR,11aS)-6-chloro-5-((4-((E)-4-(dimethylamino)but-2-enoyl)-3,4-dihydro-2H-benzo[b][1,4]oxazin-6-yl)methyl)-10-methyl-1-(6-methyl-4-(trifluoromethyl)pyridin-2-yl)-1,3a,4,5,10,11a-hexahydro-2H-benzo[b]pyrrolo[2,3-f][1,4]diazocine-2,11(3H)-dione] | 370000 M⁻¹ s⁻¹ |
| Cc1cc(C(F)(F)F)cc(N2C(=O)C[C@@H]3CN(CCCCNC(=O)/C=C/CN(C)C)c4c(Cl)cccc4N(C)C(=O)[C@H]32)n1 [Example 252, (E)-N-(4-((3aR,11aS)-6-chloro-10-methyl-1-(6-methyl-4-(trifluoromethyl)pyridin-2-yl)-2,11-dioxo-1,2,3,3a,4,10,11,11a-octahydro-5H-benzo[b]pyrrolo[2,3-f][1,4]diazocin-5-yl)butyl)-4-(dimethylamino)but-2-enamide] | 1.19e+06 M⁻¹ s⁻¹ |
| Cc1cc(C(F)(F)F)cc(N2C(=O)C[C@@H]3CN(CC(F)CCCNC(=O)/C=C/CN(C)C)c4c(Cl)cccc4N(C)C(=O)[C@H]32)n1 (stereo partly drawn) [Example 253, (E)-N-(5-((3aR,11aS)-6-chloro-10-methyl-1-(6-methyl-4-(trifluoromethyl)pyridin-2-yl)-2,11-dioxo-1,2,3,3a,4,10,11,11a-octahydro-5H-benzo[b]pyrrolo[2,3-f][1,4]diazocin-5-yl)-4-fluoropentyl)-4-(dimethylamino)but-2-enamide] | 1.42e+06 M⁻¹ s⁻¹ |
| Cc1cc(C(F)(F)F)cc(N2C(=O)C[C@@H]3CN(CCCCC4CN(C(=O)/C(Cl)=C/CN(C)C)C4)c4c(C)cccc4N(C)C(=O)[C@H]32)n1 [Example 254, (3aR,11aS)-5-(4-(1-((Z)-2-chloro-4-(dimethylamino)but-2-enoyl)azetidin-3-yl)butyl)-6,10-dimethyl-1-(6-methyl-4-(trifluoromethyl)pyridin-2-yl)-1,3a,4,5,10,11a-hexahydro-2H-benzo[b]pyrrolo[2,3-f][1,4]diazocine-2,11(3H)-dione] | 2.13e+06 M⁻¹ s⁻¹ |
| C=CC(=O)N1CCN(CCN2C[C@H]3CC(=O)N(c4cc(C(F)(F)F)cc(C)n4)[C@@H]3C(=O)N(C)c3cccc(C)c32)CC1 [Example 256, (3aR,11aS)-5-(2-(4-acryloylpiperazin-1-yl)ethyl)-6,10-dimethyl-1-(6-methyl-4-(trifluoromethyl)pyridin-2-yl)-1,3a,4,5,10,11a-hexahydro-2H-benzo[b]pyrrolo[2,3-f][1,4]diazocine-2,11(3H)-dione] | 1.11e+06 M⁻¹ s⁻¹ |
| C=CC(=O)N1Cc2ncn(CCN3C[C@H]4CC(=O)N(c5cc(C(F)(F)F)cc(C)n5)[C@@H]4C(=O)N(C)c4cccc(Cl)c43)c2C1 [Example 259, (3aR,11aS)-5-(2-(5-acryloyl-5,6-dihydropyrrolo[3,4-d]imidazol-1(4H)-yl)ethyl)-6-chloro-10-methyl-1-(6-methyl-4-(trifluoromethyl)pyridin-2-yl)-1,3a,4,5,10,11a-hexahydro-2H-benzo[b]pyrrolo[2,3-f][1,4]diazocine-2,11(3H)-dione] | 150000 M⁻¹ s⁻¹ |
| C=CC(=O)N1CCN(CCN2C[C@H]3CC(=O)N(c4cc(C(F)(F)F)cc(C)n4)[C@@H]3C(=O)N(C)c3cccc(C)c32)[C@@H](C)C1 [Example 260, (3aR,11aS)-5-(2-((S)-4-acryloyl-2-methylpiperazin-1-yl)ethyl)-6,10-dimethyl-1-(6-methyl-4-(trifluoromethyl)pyridin-2-yl)-1,3a,4,5,10,11a-hexahydro-2H-benzo[b]pyrrolo[2,3-f][1,4]diazocine-2,11(3H)-dione] | 1.54e+06 M⁻¹ s⁻¹ |
| C=CC(=O)N1CC2CC(C1)N2CCN1C[C@H]2CC(=O)N(c3cc(C(F)(F)F)cc(C)n3)[C@@H]2C(=O)N(C)c2cccc(C)c21 [Example 261, (3aR,11aS)-5-(2-(3-acryloyl-3,6-diazabicyclo[3.1.1]heptan-6-yl)ethyl)-6,10-dimethyl-1-(6-methyl-4-(trifluoromethyl)pyridin-2-yl)-1,3a,4,5,10,11a-hexahydro-2H-benzo[b]pyrrolo[2,3-f][1,4]diazocine-2,11(3H)-dione] | 340000 M⁻¹ s⁻¹ |
| C=CC(=O)N1CC2CCC(C1)N2CCN1C[C@H]2CC(=O)N(c3cc(C(F)(F)F)cc(C)n3)[C@@H]2C(=O)N(C)c2cccc(C)c21 [Example 262, (3aR,11aS)-5-(2-(3-acryloyl-3,8-diazabicyclo[3.2.1]octan-8-yl)ethyl)-6,10-dimethyl-1-(6-methyl-4-(trifluoromethyl)pyridin-2-yl)-1,3a,4,5,10,11a-hexahydro-2H-benzo[b]pyrrolo[2,3-f][1,4]diazocine-2,11(3H)-dione] | 710000 M⁻¹ s⁻¹ |
| C=CC(=O)N1CCC[C@H]1c1noc(CN2C[C@H]3CC(=O)N(c4cc(C(F)(F)F)cc(C)n4)[C@@H]3C(=O)N(C)c3cccc(C)c32)n1 [Example 269, (3aR,11aS)-5-((3-((S)-1-acryloylpyrrolidin-2-yl)-1,2,4-oxadiazol-5-yl)methyl)-6,10-dimethyl-1-(6-methyl-4-(trifluoromethyl)pyridin-2-yl)-1,3a,4,5,10,11a-hexahydro-2H-benzo[b]pyrrolo[2,3-f][1,4]diazocine-2,11(3H)-dione] | 970000 M⁻¹ s⁻¹ |
| C=CC(=O)N1CCC[C@@H]1c1nc(CN2C[C@H]3CC(=O)N(c4cc(C(F)(F)F)cc(C)n4)[C@@H]3C(=O)N(C)c3cccc(C)c32)no1 [Example 270, (3aR,11aS)-5-((5-((R)-1-acryloylpyrrolidin-2-yl)-1,2,4-oxadiazol-3-yl)methyl)-6,10-dimethyl-1-(6-methyl-4-(trifluoromethyl)pyridin-2-yl)-1,3a,4,5,10,11a-hexahydro-2H-benzo[b]pyrrolo[2,3-f][1,4]diazocine-2,11(3H)-dione] | 110000 M⁻¹ s⁻¹ |

The next lines start with the values.

| Kinact/Kl | SMILES |
| --- | --- |
| 980000 M⁻¹ s⁻¹ | Cc1cc(C(F)(F)F)cc(N2C(=O)C[C@@H]3CN(Cc4ccc5c(c4)CN(C(=O)/C(Cl)=C/CN(C)C)C5)c4c(C)cccc4N(C)C(=O)[C@H]32)n1 [Example 255, (3aR,11aS)-5-((2-((Z)-2-chloro-4-(dimethylamino)but-2-enoyl)isoindolin-5-yl)methyl)-6,10-dimethyl-1-(6-methyl-4-(trifluoromethyl)pyridin-2-yl)-1,3a,4,5,10,11a-hexahydro-2H-benzo[b]pyrrolo[2,3-f][1,4]diazocine-2,11(3H)-dione] |
| 1.06e+06 M⁻¹ s⁻¹ | C=CC(=O)N1C[C@H]2C[C@@H]1CN2CCN1C[C@H]2CC(=O)N(c3cc(C(F)(F)F)cc(C)n3)[C@@H]2C(=O)N(C)c2cccc(C)c21 [Example 263, (3aR,11aS)-5-(2-((1R,4R)-5-acryloyl-2,5-diazabicyclo[2.2.1]heptan-2-yl)ethyl)-6,10-dimethyl-1-(6-methyl-4-(trifluoromethyl)pyridin-2-yl)-1,3a,4,5,10,11a-hexahydro-2H-benzo[b]pyrrolo[2,3-f][1,4]diazocine-2,11(3H)-dione] |
| 1.25e+06 M⁻¹ s⁻¹ | C#CC(=O)N1CCN(CCN2C[C@H]3CC(=O)N(c4cc(C(F)(F)F)cc(C)n4)[C@@H]3C(=O)N(C)c3cccc(C)c32)CC1 [Example 264, (3aR,11aS)-6,10-dimethyl-1-(6-methyl-4-(trifluoromethyl)pyridin-2-yl)-5-(2-(4-propioloylpiperazin-1-yl)ethyl)-1,3a,4,5,10,11a-hexahydro-2H-benzo[b]pyrrolo[2,3-f][1,4]diazocine-2,11(3H)-dione] |
| 590000 M⁻¹ s⁻¹ | C=CC(=O)N1CCN(CCCN2C[C@H]3CC(=O)N(c4cc(C(F)(F)F)cc(C)n4)[C@@H]3C(=O)N(C)c3cccc(Cl)c32)CC1 [Example 266, (3aR,11aS)-5-(3-(4-acryloylpiperazin-1-yl)propyl)-6-chloro-10-methyl-1-(6-methyl-4-(trifluoromethyl)pyridin-2-yl)-1,3a,4,5,10,11a-hexahydro-2H-benzo[b]pyrrolo[2,3-f][1,4]diazocine-2,11(3H)-dione] |
| 410000 M⁻¹ s⁻¹ | C=CC(=O)N1CCC[C@@H]1c1noc(CN2C[C@H]3CC(=O)N(c4cc(C(F)(F)F)cc(C)n4)[C@@H]3C(=O)N(C)c3cccc(C)c32)n1 [Example 268, (3aR,11aS)-5-((3-((R)-1-acryloylpyrrolidin-2-yl)-1,2,4-oxadiazol-5-yl)methyl)-6,10-dimethyl-1-(6-methyl-4-(trifluoromethyl)pyridin-2-yl)-1,3a,4,5,10,11a-hexahydro-2H-bez[b]pyrrolo[2,3-f][1,4]diazocine-2,11(3H)-dione] |
